# Activity calls are given as the source filed them.
# What was measured:
# [1] = target: Epstein-Barr nuclear antigen 1 (Epstein-Barr virus (strain B95-8) (HHV-4) (Human herpesvirus 4), UniProt P03211); assay: EBNA-1 inhibitors, dose response, biochemical, fluorescence polarization, 1536-well (AID 2381); parameters: species or system human gammaherpesvirus 4;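 also: fluorescence polarization of a Cy5 DNA probe bound by EBNA-1 protein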
# [2] = target: Lytic switch protein BZLF1 (Epstein-Barr virus (strain B95-8) (HHV-4) (Human herpesvirus 4), UniProt P03206); assay: EBV ZTA inhibitors, dose response, counter-screen for EBNA-1 inhibitor project, biochemical, fluorescence polarization, Epstein-Barr virus, 1536-well (AID 2377); parameters: species or system human gammaherpesvirus 4;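 also: fluorescence polarization of Cy5-labelled ZRE DNA probe bound by purified Zta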
# Sequence of Lytic switch protein BZLF1 (P03206 whole entry, the tested form may be a part): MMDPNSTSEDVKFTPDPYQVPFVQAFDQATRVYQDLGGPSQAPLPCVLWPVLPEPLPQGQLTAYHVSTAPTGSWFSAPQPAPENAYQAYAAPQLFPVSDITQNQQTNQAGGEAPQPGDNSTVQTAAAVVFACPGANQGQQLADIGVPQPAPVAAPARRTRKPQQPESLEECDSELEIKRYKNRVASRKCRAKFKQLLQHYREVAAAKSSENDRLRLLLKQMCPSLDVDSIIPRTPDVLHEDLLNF
# [3] = off-target signal loss in HeLa-CEM21 co-culture – HeLa F-luc CTL cells, cherry-picked, counter-screen for HIV-1 Env fusion inhibitor project, dose response (AID 652040); assay type: functional, cell-based;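 also: potency for signal decrease marking cytotoxic or nonspecific inhibition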
# [4] = HepG2 cell cytotoxicity, dose response, cytotoxicity control, plate reader, cherry-pick, antagonist series (AID 743416); assay type: functional, cell-based
# [5] = Luminescence-based counterscreen assay for KLF5 inhibitors: dose response cell-based high throughput screening assay to identify cytotoxic compounds using the IEC-6 intestinal epithelial cell line. [Related pubchem assays: 1700 (Primary screen.), 1834 (Confirmation screen.), 1858 (Summary AID.), 1905 (Counterscreen.)]; assay type: functional
# [6] = LGR2 antagonists, dose response, cell-based, HEK293, CRE-luciferase reporter, cherry pick, set 2 (AID 743343); assay type: functional;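 also: transfected cells were stimulated with diluted bursicon conditioned medium after compound addition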
# [7] = Shn3 3'UTR reporter inhibitors, dose response, cell-based, Clone20 osteoblasts, firefly luciferase, cherry-picked (AID 624132); assay type: functional;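 also: firefly luciferase luminescence from reporter carrying the Shn3 3'UTR in osteoblasts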
# [8] = cytotoxicity in HEK-293T cells, dose response, cytotoxicity control for TCR NF-kB inhibitor project, luminescence, T-cell screen hits (AID 489026); assay type: functional, cell-based;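 also: cells exposed to compound about 14 hours before the viability readout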
# [9] = inhibitors of HIV Env-driven cell fusion, dose response, cherry-pick (AID 652057); assay type: functional, cell-based
# [10] = MC4R antagonists, dose response, counter-screen for LGR2 antagonist project, cell-based, plate reader, cherry pick (AID 743444); assay type: functional;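 also: transfected HEK 293 cells stimulated with alpha-MSH peptide; potency of inhibitors of the alpha-MSH evoked signal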
# [11] = inhibitors of clade B AD8 Env fusion, dose response, cell-based, cherry-pick (AID 652062); assay type: functional;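 also: luciferase signal from cell-cell fusion driven by HIV-1 clade B AD8 Env; potency is for inhibitors of fusion seen as a drop in luminescence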
# [12] = reduction of Shn3 3'UTR firefly luciferase signal, dose response, Schnurri-3 inhibitor project, cell-based, Clone20 osteoblasts, cherry-pick, set 2 (AID 720490); assay type: functional;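 also: actives lower the luminescence signal as inhibitors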
# [13] = target: T1, Neuropeptide Y receptor type 2 (Homo sapiens, UniProt P49146); assay type: functional, cell-based;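 also: HEK293 cells expressing the receptor and a CNG channel; stimulus was NPY near EC95 followed by isoproterenol to raise cAMP; antagonist potency measured as restoring cAMP signal that NPY suppresses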
# T1 sequence (P49146 whole entry): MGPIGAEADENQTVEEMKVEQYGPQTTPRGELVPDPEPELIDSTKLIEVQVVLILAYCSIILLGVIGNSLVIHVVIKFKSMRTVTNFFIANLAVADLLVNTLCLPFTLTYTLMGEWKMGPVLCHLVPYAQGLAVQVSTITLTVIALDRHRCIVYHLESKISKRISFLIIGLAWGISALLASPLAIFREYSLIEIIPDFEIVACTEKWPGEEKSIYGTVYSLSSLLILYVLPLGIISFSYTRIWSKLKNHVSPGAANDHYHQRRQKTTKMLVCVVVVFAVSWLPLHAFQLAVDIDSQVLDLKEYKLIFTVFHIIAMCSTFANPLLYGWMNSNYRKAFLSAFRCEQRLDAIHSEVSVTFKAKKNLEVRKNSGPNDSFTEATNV
# [14] = growth suppression of beta-catenin-knockout colon cells, dose response, cell-based, HCT116, human colon tumor (AID 1045); assay type: functional;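 also: HCT116 colon tumor cells with beta catenin knocked out; cells exposed to compound for 60 hours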
# [15] = growth suppression of PTEN-null colon cells, dose response, cell-based, HCT116 PTEN knockout (AID 1047); assay type: functional;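 also: HCT116 colon tumor cells with PTEN knocked out; cells exposed to compound for 60 hours before readout; potency for loss of cell viability measured by luminescence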
# [16] = target: T2, Neuropeptide Y receptor type 1 (Homo sapiens, UniProt P25929); assay type: functional;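 also: HEK293 cells with a CNG channel challenged with NPY then isoproterenol; potency as antagonist that reverses NPY suppression of cAMP signal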
# T2 sequence (P25929 whole entry): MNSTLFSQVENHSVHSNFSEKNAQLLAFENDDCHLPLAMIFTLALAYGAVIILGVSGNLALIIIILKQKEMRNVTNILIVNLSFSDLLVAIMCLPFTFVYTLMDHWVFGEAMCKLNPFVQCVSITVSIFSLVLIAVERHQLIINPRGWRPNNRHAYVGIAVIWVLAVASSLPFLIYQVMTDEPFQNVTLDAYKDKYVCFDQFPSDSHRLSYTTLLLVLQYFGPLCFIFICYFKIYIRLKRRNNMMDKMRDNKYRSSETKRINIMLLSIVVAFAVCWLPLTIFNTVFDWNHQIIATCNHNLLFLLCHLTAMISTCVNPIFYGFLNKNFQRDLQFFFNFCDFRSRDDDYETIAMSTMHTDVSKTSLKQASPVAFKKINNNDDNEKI
# Streptokinase A = target: T3, Streptokinase A (Streptococcus pyogenes serotype M1, UniProt P10520); assay: S. pyogenes streptokinase expression inhibitors, potency, dose response, plasminogen activation absorbance, OD405 (AID 1914); assay type: functional, Streptococcus pyogenes M1 GAS;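 also: secreted streptokinase activity via plasminogen activation per viability signal from cell pellet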
# T3 sequence (P10520 whole entry): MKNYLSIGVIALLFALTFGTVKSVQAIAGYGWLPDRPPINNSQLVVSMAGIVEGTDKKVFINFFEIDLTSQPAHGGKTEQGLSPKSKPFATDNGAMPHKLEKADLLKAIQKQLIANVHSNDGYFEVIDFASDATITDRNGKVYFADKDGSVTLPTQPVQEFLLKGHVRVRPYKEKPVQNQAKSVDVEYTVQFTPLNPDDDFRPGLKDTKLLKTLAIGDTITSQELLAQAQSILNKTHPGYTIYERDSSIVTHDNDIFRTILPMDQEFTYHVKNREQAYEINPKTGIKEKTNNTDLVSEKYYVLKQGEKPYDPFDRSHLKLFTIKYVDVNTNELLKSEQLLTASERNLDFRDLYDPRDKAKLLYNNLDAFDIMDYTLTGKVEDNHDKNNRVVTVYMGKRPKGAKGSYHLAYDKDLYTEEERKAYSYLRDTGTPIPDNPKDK
# Streptococcus [17] = assay: Luminescence Microorganism-Based Dose Response Follow up to Identify Compounds Cytotoxic to Streptococcus. [Related pubchem assays: 1677 (Project Summary), 1915, 1914, 1902 (Retest at Dose), 1900 (Counter Screen), 1662 (Primary HTS)]; assay type: functional, organism-based
# [18] = test system: Streptococcus sp. 'group A'; assay: growth inhibition of control SK(-) GAS strain, dose response, counter-screen for streptokinase expression inhibitor project, luminescence, kanamycin, BacTiterGlo, confirmation (AID 1900); assay type: functional, organism-based
# Streptococcus [19] = assay: Group A Streptococcus viability loss, dose response, counter-screen for streptokinase expression inhibitor project, luminescence, BacTiterGlo (AID 1915); assay type: functional, organism-based;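 also: potency for reduction of bacterial viability or growth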
# [20] = target: Peroxisome proliferator-activated receptor gamma/Nuclear receptor corepressor 2 (Homo sapiens, UniProt P37231+Q9Y618); assay type: functional
# Sequence of Peroxisome proliferator-activated receptor gamma/Nuclear receptor corepressor 2 (P37231 whole entry): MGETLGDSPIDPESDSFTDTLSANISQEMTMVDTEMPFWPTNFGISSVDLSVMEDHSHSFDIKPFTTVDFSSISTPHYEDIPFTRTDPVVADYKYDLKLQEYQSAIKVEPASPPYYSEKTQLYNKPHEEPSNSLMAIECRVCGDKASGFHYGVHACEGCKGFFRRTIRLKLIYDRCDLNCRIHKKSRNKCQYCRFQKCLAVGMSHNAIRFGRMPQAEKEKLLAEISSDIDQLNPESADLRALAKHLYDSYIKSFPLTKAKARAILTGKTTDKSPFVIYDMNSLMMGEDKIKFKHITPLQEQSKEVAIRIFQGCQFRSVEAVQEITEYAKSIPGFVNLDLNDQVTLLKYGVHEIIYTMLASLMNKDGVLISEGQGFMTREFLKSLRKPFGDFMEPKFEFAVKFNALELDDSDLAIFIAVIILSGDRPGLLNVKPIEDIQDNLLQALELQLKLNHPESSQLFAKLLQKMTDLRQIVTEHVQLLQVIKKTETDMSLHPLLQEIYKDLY
# Sequence of Peroxisome proliferator-activated receptor gamma/Nuclear receptor corepressor 2 (Q9Y618 whole entry): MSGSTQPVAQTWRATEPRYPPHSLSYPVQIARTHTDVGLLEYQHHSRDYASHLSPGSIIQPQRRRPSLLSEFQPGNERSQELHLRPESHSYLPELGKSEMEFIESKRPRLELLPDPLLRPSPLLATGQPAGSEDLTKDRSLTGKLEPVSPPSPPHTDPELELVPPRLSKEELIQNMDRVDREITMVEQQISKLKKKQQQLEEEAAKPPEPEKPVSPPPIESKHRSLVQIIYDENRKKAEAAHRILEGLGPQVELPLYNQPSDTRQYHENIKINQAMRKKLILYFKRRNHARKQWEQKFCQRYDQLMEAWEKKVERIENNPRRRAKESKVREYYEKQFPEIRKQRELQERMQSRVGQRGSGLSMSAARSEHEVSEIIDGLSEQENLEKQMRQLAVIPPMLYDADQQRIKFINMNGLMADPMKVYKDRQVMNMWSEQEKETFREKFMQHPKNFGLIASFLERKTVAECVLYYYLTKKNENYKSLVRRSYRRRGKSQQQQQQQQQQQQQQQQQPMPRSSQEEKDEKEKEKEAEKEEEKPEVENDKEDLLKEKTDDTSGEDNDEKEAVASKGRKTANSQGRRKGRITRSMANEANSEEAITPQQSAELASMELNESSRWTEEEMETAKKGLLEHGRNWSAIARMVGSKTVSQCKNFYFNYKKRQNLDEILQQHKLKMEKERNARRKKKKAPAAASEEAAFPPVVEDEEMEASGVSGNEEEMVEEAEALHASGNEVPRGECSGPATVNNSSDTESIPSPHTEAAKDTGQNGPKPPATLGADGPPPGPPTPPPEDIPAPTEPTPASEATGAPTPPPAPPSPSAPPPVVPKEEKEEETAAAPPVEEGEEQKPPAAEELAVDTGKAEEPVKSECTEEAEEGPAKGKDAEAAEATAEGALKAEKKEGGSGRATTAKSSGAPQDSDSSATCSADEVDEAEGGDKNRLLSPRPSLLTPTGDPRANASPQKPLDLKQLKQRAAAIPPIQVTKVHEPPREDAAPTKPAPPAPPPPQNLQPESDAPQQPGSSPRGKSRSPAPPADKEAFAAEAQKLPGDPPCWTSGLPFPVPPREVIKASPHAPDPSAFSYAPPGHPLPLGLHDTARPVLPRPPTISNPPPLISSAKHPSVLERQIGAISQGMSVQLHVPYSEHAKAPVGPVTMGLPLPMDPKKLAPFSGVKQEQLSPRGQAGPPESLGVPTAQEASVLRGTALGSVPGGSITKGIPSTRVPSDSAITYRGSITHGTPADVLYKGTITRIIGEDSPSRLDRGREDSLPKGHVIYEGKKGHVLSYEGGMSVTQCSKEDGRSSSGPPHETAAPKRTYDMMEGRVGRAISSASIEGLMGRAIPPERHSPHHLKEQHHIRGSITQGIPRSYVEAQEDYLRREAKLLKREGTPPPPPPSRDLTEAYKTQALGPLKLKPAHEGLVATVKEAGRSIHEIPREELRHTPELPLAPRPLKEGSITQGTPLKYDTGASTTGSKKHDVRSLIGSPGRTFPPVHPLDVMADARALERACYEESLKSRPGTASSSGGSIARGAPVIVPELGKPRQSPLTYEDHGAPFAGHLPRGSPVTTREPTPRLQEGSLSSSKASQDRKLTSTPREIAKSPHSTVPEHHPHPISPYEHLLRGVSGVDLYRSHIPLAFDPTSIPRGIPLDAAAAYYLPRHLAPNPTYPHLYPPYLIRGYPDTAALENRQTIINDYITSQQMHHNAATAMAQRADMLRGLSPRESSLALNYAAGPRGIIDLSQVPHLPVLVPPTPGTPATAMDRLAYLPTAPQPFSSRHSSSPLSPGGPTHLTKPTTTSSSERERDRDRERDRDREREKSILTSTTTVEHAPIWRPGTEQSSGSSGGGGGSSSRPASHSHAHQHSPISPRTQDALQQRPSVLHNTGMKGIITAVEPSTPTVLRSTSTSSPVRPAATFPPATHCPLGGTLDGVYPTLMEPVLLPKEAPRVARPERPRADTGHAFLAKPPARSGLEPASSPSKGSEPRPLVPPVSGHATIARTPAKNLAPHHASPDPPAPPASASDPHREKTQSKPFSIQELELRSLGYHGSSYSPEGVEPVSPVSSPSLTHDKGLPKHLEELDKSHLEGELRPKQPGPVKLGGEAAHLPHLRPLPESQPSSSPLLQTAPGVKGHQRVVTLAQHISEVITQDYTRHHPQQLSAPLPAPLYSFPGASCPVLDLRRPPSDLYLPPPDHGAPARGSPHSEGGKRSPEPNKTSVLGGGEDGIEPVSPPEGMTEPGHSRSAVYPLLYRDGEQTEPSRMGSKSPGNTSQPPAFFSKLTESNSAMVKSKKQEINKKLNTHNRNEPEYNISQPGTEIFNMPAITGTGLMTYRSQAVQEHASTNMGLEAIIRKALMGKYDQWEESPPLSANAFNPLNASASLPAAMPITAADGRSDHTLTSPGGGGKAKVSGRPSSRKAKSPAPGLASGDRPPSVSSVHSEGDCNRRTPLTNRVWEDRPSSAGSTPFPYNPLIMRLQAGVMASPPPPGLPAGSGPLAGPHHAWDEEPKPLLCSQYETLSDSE
# [21] = target: Photoreceptor-specific nuclear receptor (Homo sapiens, UniProt Q9Y5X4); assay type: functional;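 also: potency for compounds that break the NR2E3 corepressor complex and count as activators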
# Sequence of Photoreceptor-specific nuclear receptor (Q9Y5X4 whole entry): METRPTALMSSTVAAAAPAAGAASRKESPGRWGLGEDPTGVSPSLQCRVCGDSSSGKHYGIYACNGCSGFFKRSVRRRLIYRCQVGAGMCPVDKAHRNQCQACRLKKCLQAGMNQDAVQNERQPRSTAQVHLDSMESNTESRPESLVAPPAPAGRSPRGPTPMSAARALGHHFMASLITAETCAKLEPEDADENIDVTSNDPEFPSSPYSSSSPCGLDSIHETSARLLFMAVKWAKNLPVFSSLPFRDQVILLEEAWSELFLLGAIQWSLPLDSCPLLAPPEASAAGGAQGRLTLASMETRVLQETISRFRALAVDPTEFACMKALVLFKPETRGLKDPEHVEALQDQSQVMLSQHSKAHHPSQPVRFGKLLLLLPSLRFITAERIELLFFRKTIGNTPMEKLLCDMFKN
# [22] = target: T4, Eukaryotic translation initiation factor 2-alpha kinase 3 (Homo sapiens, UniProt Q9NZJ5); assay: Dose response cell-based high-throughput screening assay to measure PERK inhibition. [Related pubchem assays: 1416 ]; assay type: functional
# T4 sequence (Q9NZJ5 whole entry): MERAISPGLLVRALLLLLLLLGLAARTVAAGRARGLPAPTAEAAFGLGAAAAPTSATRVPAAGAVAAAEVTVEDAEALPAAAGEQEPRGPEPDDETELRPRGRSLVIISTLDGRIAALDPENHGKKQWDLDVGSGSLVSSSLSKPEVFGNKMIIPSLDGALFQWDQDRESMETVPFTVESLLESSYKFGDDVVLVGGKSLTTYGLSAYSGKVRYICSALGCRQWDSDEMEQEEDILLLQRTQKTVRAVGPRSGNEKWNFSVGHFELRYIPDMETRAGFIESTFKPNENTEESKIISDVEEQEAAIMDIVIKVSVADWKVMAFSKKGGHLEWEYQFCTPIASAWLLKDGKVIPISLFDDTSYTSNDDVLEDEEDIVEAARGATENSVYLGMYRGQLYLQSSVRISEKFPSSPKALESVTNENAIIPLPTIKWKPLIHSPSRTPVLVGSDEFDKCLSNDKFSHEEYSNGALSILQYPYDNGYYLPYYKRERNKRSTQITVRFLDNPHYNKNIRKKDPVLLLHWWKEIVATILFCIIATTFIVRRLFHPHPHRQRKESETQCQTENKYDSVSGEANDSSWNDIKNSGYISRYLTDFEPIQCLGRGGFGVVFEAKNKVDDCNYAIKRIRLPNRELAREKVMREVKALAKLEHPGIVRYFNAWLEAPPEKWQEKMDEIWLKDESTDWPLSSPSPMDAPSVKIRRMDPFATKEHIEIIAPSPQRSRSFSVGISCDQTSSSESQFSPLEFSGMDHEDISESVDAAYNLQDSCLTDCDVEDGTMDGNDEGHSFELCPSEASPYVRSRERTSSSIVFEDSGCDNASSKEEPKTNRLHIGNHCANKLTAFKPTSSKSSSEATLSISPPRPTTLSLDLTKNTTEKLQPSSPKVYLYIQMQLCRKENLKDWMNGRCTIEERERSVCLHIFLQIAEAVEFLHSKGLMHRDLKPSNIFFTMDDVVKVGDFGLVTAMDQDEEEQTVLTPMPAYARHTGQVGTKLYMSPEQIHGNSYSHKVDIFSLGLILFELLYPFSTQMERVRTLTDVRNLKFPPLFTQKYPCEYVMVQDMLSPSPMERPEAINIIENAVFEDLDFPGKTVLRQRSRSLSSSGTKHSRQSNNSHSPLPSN
# [23] = target: T4, Eukaryotic translation initiation factor 2-alpha kinase 3; assay: Counterscreen assay for PERK inhibitors: Dose response cell-based high throughput screening assay to measure inhibition of PERK at 6 hours. [Related pubchem assays: 1522, 1416 ]; assay type: functional
# Bcl-2-like protein 10 = target: T5, Bcl-2-like protein 10 (Homo sapiens, UniProt Q9HD36); assay: Biochemical TR3 FP assay of Bcl-B inhibitor potency, EC50 (AID 1243); assay type: functional
# T5 sequence (Q9HD36 whole entry): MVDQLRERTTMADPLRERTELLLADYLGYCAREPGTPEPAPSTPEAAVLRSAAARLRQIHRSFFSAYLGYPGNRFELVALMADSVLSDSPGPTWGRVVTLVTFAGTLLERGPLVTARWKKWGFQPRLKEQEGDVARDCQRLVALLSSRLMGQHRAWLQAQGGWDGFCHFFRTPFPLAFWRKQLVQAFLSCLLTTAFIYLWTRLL
structure (smiles),measurement,setting,value
N#Cc1ccc(N2Cc3ccccc3/C2=N/C(=O)Nc2ccc(Cl)cc2)cc1,IC50,[1],8.14 µM (active)
same,IC50,[2],> 111 µM (not active)
O=C(NCCc1ccccc1)c1ccc2c(c1)OCCO2,AC50,[3],4.51 µM (active)
same,AC50,[4],> 52 µM (inactive)
same,IC50,[5],> 39.8 µM (not active)
same,AC50,[6],0.801 µM (active)
same,AC50,[7],2.16 µM (active)
same,IC50,[8],> 80 µM (inactive)
same,AC50,[9],2.05 µM (active)
same,AC50,[10],0.885 µM (active)
same,AC50,[11],3.07 µM (active)
same,AC50,[12],2.31 µM (active)
Cc1cccc(N=C(S)N(CCN(C)C)Cc2cc3cc(C)cc(C)c3nc2O)c1,IC50,[13],14.3 µM (not active)
same,EC50,[14],18.1 µM (active)
same,EC50,[15],33.6 µM (active)
same,IC50,[16],6.32 µM (active)
COc1ccc(Nc2ncnc3scc(-c4ccc(OC)cc4)c23)cc1,EC50,Streptokinase A,10.5 µM (active)
same,EC50,Streptococcus [17],> 500 µM (not active)
same,EC50,[18],122 µM (active)
same,EC50,Streptococcus [19],> 150 µM (not active)
COC(=O)CCCCC1SCC2NC(=O)NC21O (stereo not given),IC50,[20],0.577 µM (active)
same,IC50,[21],0.139 µM (active)
COc1ccccc1NC(=O)CSc1nnc(CCC(=O)Nc2ccccc2F)n1C,EC50,[22],> 55.7 µM (not active)
same,EC50,[23],> 55.7 µM (not active)
O=C(O)C1Nc2c(cccc2[N+](=O)[O-])C2C=CCC12 (stereo not given),EC50,Bcl-2-like protein 10,1.2 µM (active)
